Experimental data as given in patent US20260283988A1, “FERROPTOSIS INHIBITORS” (priority 2023, published 2026).
Like-named read-outs stand apart in the source and are kept apart here.

Columns and labels:
[1] = Cell-free BODIPY assay with AAPH; type: biochemical; conditions: 25 μM compound; 7.5 mM AAPH
Method: As a control, the same amount of DMSO was diluted in 150 μl PBS. […] For the non-oxidized control, one sample was prepared as DMSO only without AAPH. All three solutions were mixed equally and incubated for 30 min at room temperature in the dark.

[2] = Cytotoxicity, cell viability assay; type: cell-based, Human; conditions: human, ht-1080 cells, * = signal quenching at higher concentration, toxicity might be less than indicated; read-out: cytotoxic IC50
Method: (§1) After 24 h of growth, cells were treated with 10 or 12-point serial dilutions of compounds in indicated concentrations for 18 h.

HT-1080 [3] = experiment: Apoptosis assay, Staurosporine-induced Caspase 3/7 activity (Caspase-Glo 3/7); type: cell-based, Human
Method: For detecting apoptosis, HT-1080 were treated with Staurosporine before addition of Seratrodast or zVAD-FMK. Caspase 3/7 activity was measured 18 hours later via Caspase-Glo® 3/7 Assay Reagent (Promega) according to the manufacturer's instruction. Cells were incubated for 45 min at room temperature and luminescence was measured.

[4] = tested on: Mouse Embryonic Fibroblasts (MEF); experiment: Necroptosis assay, TNFα + zVAD-FMK + LCL161, cell viability; type: cell-based
Method: For detecting necroptosis, MEF were treated with TNFα, zVAD-FMK and LCL161 before addition of Seratrodast or Necrostatin-1. Cell viability was measured after 18 hours by adding CellTiter-Glo® 2.0 Reagent (Promega) according to the manufacturer's instruction and luminescence was read out.

[5] = tested on: HT-1080-derived spheroids; experiment: 3D spheroid formation and imaging (roundness); type: cell-based, Human; conditions: 200 nM RSL3; 2 μM Fer-1; 6 μM Seratrodast, 48 h
Method: Over a period of 48 h spheroids were formed and subsequently treated with RSL3, and Ferrostatin-1 or Seratrodast. […] Images were acquired using an Operetta high-content imaging system (PerkinElmer) and analyses were conducted with the Columbus software (PerkinElmer). For analysis, spheroids were detected as “Image region” and morphology properties were calculated (roundness).

HT-1080 [6] = experiment: Flow cytometry, BODIPY 581/591 C11 lipid peroxidation sensor; type: cell-based, Human; conditions: 200 nM RSL3; 6 μM Seratrodast, 2.5 h
Method: (§2) HT1080 cells were grown in 6-well plates (200,000 cells per well) and incubated for 24 h. For staining with BODIPY 581/591 C11 (Thermo Fisher Scientific), cells were treated with RSL3, and Ferrostatin-1 or Seratrodast for 2 h, then BODIPY was added into the wells to a final concentration of 2 μM. After 30 min incubation, cells were detached using Trypsin and washed two times with PBS. Between the wash steps, cells were centrifuged at 500×g for 5 minutes. After the final washing step, cell pellets were resuspended in 300 μl PBS and 10,000 events per condition were analyzed in the BL-1 channel of an Attune acoustic flow cytometer (Applied Biosystems). For detection of 4-Hydroxynonenal (4-HNE), HT-1080 were induced with RSL3, and co-treated with Ferrostatin-1 or Seratrodast for 2 h before they were detached using Trypsin. Cell pellets were incubated in 10% normal goat serum (Thermo Fisher Scientific) for 30 min on ice. Subsequently, cells were incubated with anti-4-HNE antibody (1:50 dilution in 1% BSA in PBS, ab46545, Abcam) for 1 h on ice. […] For flow cytometry, cells were collected in 300 μl PBS and 10,000 events per condition were analyzed in an Attune acoustic flow cytometer (Applied Biosystems), using the BL-1 channel. FlowJo™ v10.8.1 (BD Life Sciences) was used for creating histograms and analyzing fluorescence intensity.

HT-1080 [7] = experiment: Flow cytometry, 4-Hydroxynonenal (4-HNE) immunostaining; type: cell-based, Human; conditions: 300 nM RSL3; 6 μM Seratrodast, 2 h
Method: as §2

HT-1080 [8] = experiment: Ferroptosis inhibition, cell viability assay (CellTiter-Glo); type: cell-based, Human; conditions: for IC50: read-out: IC50 (Ferroptosis inhibition); for cellular efficacy/toxicity window: cytotoxic IC50 versus ferroptosis inhibition IC50, 1080 min
Method: Cell lines: Human fibrosarcoma cell line HT-1080 and immortalized Mouse Embryonic Fibroblasts (MEF). MEFs were a gift from Daniel Krappmann, HT-1080 were purchased from ATCC and both cell lines were grown in Dulbecco's Modified Eagle's medium (Thermo Fisher Scientific, 41966-029) supplemented with 10% fetal bovine serum (FBS, Thermo Fisher Scientific), 1% Penicillin-Streptomycin (Thermo Fisher Scientific) and 1% nonessential amino acids (MEM NEAA, Thermo Fisher Scientific). Cells were grown at 37° C. and 5% CO2.
HT-1080 were seeded into 384-well plates (CulturPlates, PerkinElmer) with a density of 750 cells per well. After 24 h of growth, cells were treated with 10 or 12-point serial dilutions of compounds in indicated concentrations for 18 h. Viability was detected by using CellTiter-Glo® 2.0 Regent (Promega) according to the manufacturer's instruction and luminescence was read out in an EnVison 2104 Multilabel plate reader (PerkinElmer).

HT-1080 [9] = experiment: TBARS assay (MDA levels); type: cell-based, Human; conditions: 250 nM RSL3; 6 μM Seratrodast, 2.5 h
Method: 2 million HT-1080 cells were seeded into 150 mm dishes and grown for 48 hours. Ferroptosis was induced with RSL3 for 2.5 hours and cells were co-treated with Ferrostatin-1 or Seratrodast. Cells were detached by 0.05% Trypsin-EDTA (Thermo Fisher Scientific) and cell number was adjusted to the sample with the lowest cell count. For measuring MDA levels, TBARS (TCA Method) Assay Kit (Cayman Chemical, 700870) was used according to manufacturer's instruction. Fluorescence was detected at 530 nm/550 nm in an EnVision 2104 Multilabel plate reader (PerkinElmer).

HT-1080 [10] = experiment: Cytotoxicity, cell viability assay; type: cell-based, Human; conditions: * = signal quenching at higher concentration, toxicity might be less than indicated; 1080 min; read-out: cytotoxic IC50
Method: as §1

[11] = Homo sapiens, HT-1080, based on the assays of example 1
[12] = based on the assays of example 1

With CC1=C(C)C(=O)C(C(CCCCCC(=O)O)c2ccccc2)=C(C)C1=O (stereo not drawn) [iQFerr01, Seratrodast, reference compound] the “oxidative fluorescence induced by AAPH (cell-free C11-BODIPY)” value [1] was “significantly reduced oxidative fluorescence”, the CC50 at 18 h [2] was 57900 nM and the Apoptosis inhibition (HT-1080 [3]) was “no”. The inhibition of apoptosis (HT-1080 [3]; 6 μM, 1 μM Staurosporine, 18 h) was “does not inhibit apoptosis”, the Necroptosis inhibition [4] was “no” and the inhibition of necroptosis ([4]; 6 μM, 20 ng/ml TNFα + 10 μM Z-VAD-FMK + 10 μM LCL161 for 18 h) was “does not inhibit necroptosis”. For the same compound, the “inhibition of ferroptosis in 3D spheroid model (spheroid roundness)” value [5] was “fully inhibited ferroptosis-based spheroid destruction”, the “RSL3-mediated peroxidation of the C11-BODIPY sensor” value (HT-1080 [6]) was “largely reduced” and the “RSL3-induced 4-hydroxynonenal (4-HNE) levels” value (HT-1080 [7]) was “reduced”. The “suppression of ferroptosis (cell viability)” value (HT-1080 [8]; 100 nM RSL3 or 1.5 μM IKE for 18 h) was “dose-dependently suppresses ferroptosis”, the “inhibition of ferroptosis induced by RSL3, IKE, FINO2 and FIN56” value (HT-1080 [8]; 6 μM Seratrodast, 2 μM Fer-1, 18 h) was “able to suppress ferroptosis induced by all four FINs” and the IC50 (HT-1080 [8]; [11]) was 290 nM. The cellular efficacy/toxicity window (HT-1080 [8]) was 200-fold and the “RSL3-induced malondialdehyde (MDA) levels” value (HT-1080 [9]) was “eliminated levels of malondialdehyde”.
In the case of Cc1ccc(N(CCCCCC(N)=O)C2=CC(=O)c3ccccc3C2=O)c(C)c1 [iQFerr43, 6-[(2,4-dimethylphenyl)(1,4-dioxo-1,4-dihydronaphthalen-2-yl)amino]hexanamide], the CC50 at 18 h [2] is reported as 75400 nM, the Apoptosis inhibition (HT-1080 [3]) is reported as “no” and the Necroptosis inhibition [4] is reported as “no”. The IC50 (HT-1080 [8]; [11]) was 116 nM and the cellular efficacy/toxicity window (HT-1080 [8]) was 653-fold.
For CC(=O)Nc1ccc(NC2=C(C(F)(F)F)C(=O)c3ccccc3C2=O)cc1 [iQFerr44, N-(4-{[1,4-dioxo-3-(trifluoromethyl)-1,4-dihydronaphthalen-2-yl]amino}phenyl) acetamide], the CC50 at 18 h [2] was 58800 nM, the Necroptosis inhibition [4] was “no” and the IC50 (HT-1080 [8]; [11]) was 30.9 nM. For the same compound, the cellular efficacy/toxicity window (HT-1080 [8]) was 1901-fold.
With CC(=O)c1ccc(NC2=C(Cl)C(=O)c3ccccc3C2=O)cc1 [iQFerr02, NQ301] the CC50 at 18 h [2] was 759 nM, the Necroptosis inhibition [4] was “no” and the IC50 (HT-1080 [8]; [11]) was 27 nM. The cellular efficacy/toxicity window (HT-1080 [8]) was 28-fold.
For CC(=O)Nc1ccc(NC2=CC(=O)c3ccccc3C2=O)cc1 [iQFerr20, N-[4-(1,4-dioxo-1,4-dihydronaphthalen-2-yl-amino)phenyl]acetamide], the CC50 at 18 h [2] was 10200 nM, the Apoptosis inhibition (HT-1080 [3]) was “no” and the Necroptosis inhibition [4] was “no”. The IC50 (HT-1080 [8]; [11]) was 8.12 nM and the cellular efficacy/toxicity window (HT-1080 [8]) was 1254-fold.
In the case of O=C1C=C(C(c2ccccc2)c2ccccc2)C(=O)c2ccccc21 [iQFerr29, 2-diphenylmethyl-1,4-naphtoquinone], the CC50 at 18 h [2] is reported as 4990 nM, the Necroptosis inhibition [4] is reported as “no” and the IC50 (HT-1080 [8]; [11]) is reported as 3.91 nM. For the same compound, the cellular efficacy/toxicity window (HT-1080 [8]) was 1277-fold.
In the case of Cc1ccc(NC2=C(Cl)C(=O)c3ccccc3C2=O)c(C)c1 [iQFerr14, 2-chloro-3-(2,4-dimethylanilino)-1,4-naphtoquinone], the CC50 (HT-1080 [10]) is reported as 1000 nM, the IC50 (HT-1080 [8]; [12]) is reported as 0.034 nM and the cellular efficacy/toxicity window (HT-1080 [8]) is reported as 5000-fold.
With Cc1ccc(N(CCCCCC(=O)O)C2=CC(=O)c3ccccc3C2=O)c(C)c1 [iQFerr38, 6-[(2,4-dimethylphenyl)(1,4-dioxo-1,4-dihydronaphthalen-2-yl)amino]hexanoic acid] the CC50 at 18 h [2] was 49800 nM, the Apoptosis inhibition (HT-1080 [3]) was “no” and the Necroptosis inhibition [4] was “no”. For the same compound, the IC50 (HT-1080 [8]; [11]) was 215 nM and the cellular efficacy/toxicity window (HT-1080 [8]) was 232-fold.
For CCOC(=O)c1ccc(NC2CCCCC2)c(N)c1 [Ferrostatin-1], the “oxidative fluorescence induced by AAPH (cell-free C11-BODIPY)” value [1] was “significantly reduced oxidative fluorescence” and the “inhibition of ferroptosis in 3D spheroid model (spheroid roundness)” value [5] was “fully inhibited ferroptosis-based spheroid destruction”.
With CC(=O)Nc1ccc(NC2=C(Cl)C(=O)c3ccccc3C2=O)cc1 [iQFerr36, N-{4-[(3-chloro-1,4-dioxo-1,4-dihydronaphthalen-2 yl)amino]phenyl} acetamide] the CC50 at 18 h [2] was 564 nM, the IC50 (HT-1080 [8]; [11]) was 7.36 nM and the cellular efficacy/toxicity window (HT-1080 [8]) was 77-fold.
For Cc1ccc(NC2=C(Cl)C(=O)c3ccccc3C2=O)c(C)c1 [iQFerr35, 2-chloro-3-[(2,4-dimethylphenyl)amino]-1,4-dihydronaphthalene-1,4-dione], the CC50 (HT-1080 [10]) was 5570 nM, the IC50 (HT-1080 [8]; [12]) was 0.692 nM and the cellular efficacy/toxicity window (HT-1080 [8]) was 8051-fold.
With O=C1C(Cl)=C(Nc2ccc(F)cc2)C(=O)c2ccccc21 [iQFerr17, 2-chloro-3-(4-fluoroanilino)-1,4-naphtoquinone] the CC50 at 18 h [2] was 397 nM, the IC50 (HT-1080 [8]; [11]) was 6.1 nM and the cellular efficacy/toxicity window (HT-1080 [8]) was 65-fold.
In the case of Cc1ccc(NC2=C(C(F)(F)F)C(=O)c3ccccc3C2=O)c(C)c1 [iQFerr47, 2-[(2,4-dimethylphenyl)amino]-3-(trifluoromethyl)-1,4-dihydronaphthalene-1,4-dione], the CC50 at 18 h [2] is reported as 14700 nM, the Apoptosis inhibition (HT-1080 [3]) is reported as “no” and the Necroptosis inhibition [4] is reported as “no”. For the same compound, the IC50 (HT-1080 [8]; [11]) was 10.1 nM and the cellular efficacy/toxicity window (HT-1080 [8]) was 1458-fold.
With CC1=C(Nc2ccc(C)cc2C)C(=O)c2ccccc2C1=O [iQFerr41, 2-[(2,4-dimethylphenyl)amino]-3-methyl-1,4-dihydronaphthalene-1,4-dione] the CC50 at 18 h [2] was 13400 nM, the Apoptosis inhibition (HT-1080 [3]) was “no” and the Necroptosis inhibition [4] was “no”. For the same compound, the IC50 (HT-1080 [8]; [11]) was 2.91 nM and the cellular efficacy/toxicity window (HT-1080 [8]) was 4601-fold.
In the case of CCOc1ccc(NC2=CC(=O)c3ccccc3C2=O)cc1 [iQFerr21, 2-(4-ethoxyanilino)-1,4-naphtoquinone], the CC50 at 18 h [2] is reported as 8570 nM, the IC50 (HT-1080 [8]; [11]) is reported as 43 nM and the cellular efficacy/toxicity window (HT-1080 [8]) is reported as 199-fold.
In the case of CC(=O)Nc1ccc(NC2=C(C)C(=O)c3ccccc3C2=O)cc1 [iQFerr39, N-{4-[(3-methyl-1,4-dioxo-1,4-dihydronaphthalen-2-yl)amino]phenyl} acetamide], the CC50 at 18 h [2] is reported as 43500 nM, the Apoptosis inhibition (HT-1080 [3]) is reported as “no” and the Necroptosis inhibition [4] is reported as “no”. For the same compound, the IC50 (HT-1080 [8]; [11]) was 17 nM and the cellular efficacy/toxicity window (HT-1080 [8]) was 2561-fold.
With CC1=C(Nc2cc(C)cc(C)c2)C(=O)c2ccccc2C1=O [iQFerr46, 2-[(3,5-dimethylphenyl)amino]-3-methyl-1,4-dihydronaphthalene-1,4-dione] the CC50 at 18 h [2] was 77600 nM, the Apoptosis inhibition (HT-1080 [3]) was “no” and the Necroptosis inhibition [4] was “no”. The IC50 (HT-1080 [8]; [11]) was 2.11 nM and the cellular efficacy/toxicity window (HT-1080 [8]) was 36758-fold.
